Source: patent US5530126A, “Process for the preparation of substituted 6-(pyrazol-3yl)-1,4-benzoxazin-3-ones” (Monsanto Company, priority 1994, dated 1996)

Tests used:
Assay type in all cases: in vivo
[1] = tested on: Indian Mustard; test: Pre-emergence herbicide test; conditions: Brassica juncea, read-out: % plant inhibition (Inmu); for inhibition at 11210 g/ha: 11.21 kg/ha; for inhibition at 1120 g/ha: 1.12 kg/ha
Summary of the method: (§1)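 Sow seeds on compacted topsoil; apply compound in acetone/water to seed bed; cover with untreated topsoil; grow in greenhouse with bottom watering; score % inhibition at 10-14 days.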

[2] = tested on: Morningglory; test: Pre-emergence herbicide test; conditions: Ipomoea, read-out: % plant inhibition (Mogl); for inhibition at 11210 g/ha: 11.21 kg/ha; for inhibition at 1120 g/ha: 1.12 kg/ha
Summary of the method: as §1

[3] = tested on: Downy Brome; test: Pre-emergence herbicide test; conditions: Bromus tectorum, read-out: % plant inhibition (Dobr); for inhibition at 11210 g/ha: 11.21 kg/ha; for inhibition at 1120 g/ha: 1.12 kg/ha
Summary of the method: as §1

[4] = tested on: Wild buckwheat; test: Pre-emergence herbicide test; conditions: Fallopia convolvulus, read-out: % plant inhibition (Wibw); for inhibition at 11210 g/ha: 11.21 kg/ha; for inhibition at 1120 g/ha: 1.12 kg/ha
Summary of the method: as §1

[5] = tested on: Cocklebur; test: Pre-emergence herbicide test; conditions: Xanthium strumarium, read-out: % plant inhibition (Cobu); for inhibition at 11210 g/ha: 11.21 kg/ha; for inhibition at 1120 g/ha: 1.12 kg/ha
Summary of the method: as §1

[6] = tested on: Annual bluegrass; test: Pre-emergence herbicide test; conditions: read-out: % plant inhibition (Anbg); for inhibition at 11210 g/ha: 11.21 kg/ha; for inhibition at 1120 g/ha: 1.12 kg/ha
Summary of the method: as §1

[7] = tested on: Barnyardgrass; test: Pre-emergence herbicide test; conditions: Echinochloa crus-galli, read-out: % plant inhibition (Bygr); for inhibition at 11210 g/ha: 11.21 kg/ha; for inhibition at 1120 g/ha: 1.12 kg/ha
Summary of the method: as §1

[8] = tested on: Seedling johnsongrass; test: Pre-emergence herbicide test; conditions: Sorghum halepense, read-out: % plant inhibition (Sejg); for inhibition at 11210 g/ha: 11.21 kg/ha; for inhibition at 1120 g/ha: 1.12 kg/ha
Summary of the method: as §1

[9] = tested on: Yellow nutsedge; test: Pre-emergence herbicide test; conditions: Cyperus, read-out: % plant inhibition (Yens); for inhibition at 11210 g/ha: 11.21 kg/ha; for inhibition at 1120 g/ha: 1.12 kg/ha
Summary of the method: as §1

[10] = tested on: Velvetleaf; test: Pre-emergence herbicide test; conditions: Abutilon theophrasti, read-out: % plant inhibition (Vele); for inhibition at 11210 g/ha: 11.21 kg/ha; for inhibition at 1120 g/ha: 1.12 kg/ha
Summary of the method: as §1

[11] = tested on: Indian Mustard; test: Post-emergence herbicide test; conditions: Brassica juncea, read-out: % plant inhibition (Inmu); for inhibition at 11210 g/ha: 11.21 kg/ha; for inhibition at 1120 g/ha: 1.12 kg/ha
Summary of the method: (§2)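 Percent growth inhibition against untreated plants, assessed roughly 11 days (range 10–14) after treatment and in some cases at about 25 days. Foliar application was to two- to three-week-old greenhouse plants at 1870 L/Ha spray volume.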

[12] = tested on: Morningglory; test: Post-emergence herbicide test; conditions: Ipomoea, read-out: % plant inhibition (Mogl); for inhibition at 11210 g/ha: 11.21 kg/ha; for inhibition at 1120 g/ha: 1.12 kg/ha
Summary of the method: as §2

[13] = tested on: Downy Brome; test: Post-emergence herbicide test; conditions: Bromus tectorum, read-out: % plant inhibition (Dobr); for inhibition at 11210 g/ha: 11.21 kg/ha; for inhibition at 1120 g/ha: 1.12 kg/ha
Summary of the method: as §2

[14] = tested on: Wild buckwheat; test: Post-emergence herbicide test; conditions: Fallopia convolvulus, read-out: % plant inhibition (Wibw); for inhibition at 11210 g/ha: 11.21 kg/ha; for inhibition at 1120 g/ha: 1.12 kg/ha
Summary of the method: as §2

[15] = tested on: Cocklebur; test: Post-emergence herbicide test; conditions: Xanthium strumarium, read-out: % plant inhibition (Cobu); for inhibition at 11210 g/ha: 11.21 kg/ha; for inhibition at 1120 g/ha: 1.12 kg/ha
Summary of the method: as §2

[16] = tested on: Annual bluegrass; test: Post-emergence herbicide test; conditions: read-out: % plant inhibition (Anbg); for inhibition at 11210 g/ha: 11.21 kg/ha; for inhibition at 1120 g/ha: 1.12 kg/ha
Summary of the method: as §2

[17] = tested on: Barnyardgrass; test: Post-emergence herbicide test; conditions: Echinochloa crus-galli, read-out: % plant inhibition (Bygr); for inhibition at 11210 g/ha: 11.21 kg/ha; for inhibition at 1120 g/ha: 1.12 kg/ha
Summary of the method: as §2

[18] = tested on: Seedling johnsongrass; test: Post-emergence herbicide test; conditions: Sorghum halepense, read-out: % plant inhibition (Sejg); for inhibition at 11210 g/ha: 11.21 kg/ha; for inhibition at 1120 g/ha: 1.12 kg/ha
Summary of the method: as §2

[19] = tested on: Yellow nutsedge; test: Post-emergence herbicide test; conditions: Cyperus, read-out: % plant inhibition (Yens); for inhibition at 11210 g/ha: 11.21 kg/ha; for inhibition at 1120 g/ha: 1.12 kg/ha
Summary of the method: as §2

[20] = tested on: Velvetleaf; test: Post-emergence herbicide test; conditions: Abutilon theophrasti, read-out: % plant inhibition (Vele); for inhibition at 11210 g/ha: 11.21 kg/ha; for inhibition at 1120 g/ha: 1.12 kg/ha
Summary of the method: as §2

SMILES | inhibition at 1120 g/ha [1] | inhibition at 1120 g/ha [2] | inhibition at 1120 g/ha [3] | inhibition at 1120 g/ha [4] | inhibition at 1120 g/ha [5] | inhibition at 1120 g/ha [6] | inhibition at 1120 g/ha [7] | inhibition at 1120 g/ha [8] | inhibition at 1120 g/ha [9] | inhibition at 1120 g/ha [10] | inhibition at 1120 g/ha [11] | inhibition at 1120 g/ha [12] | inhibition at 1120 g/ha [13] | inhibition at 1120 g/ha [14] | inhibition at 1120 g/ha [15] | inhibition at 1120 g/ha [16] | inhibition at 1120 g/ha [17] | inhibition at 1120 g/ha [18] | inhibition at 1120 g/ha [19] | inhibition at 1120 g/ha [20] | other results
COc1cc(F)c(-c2c(Cl)c(C(F)(F)F)nn2C)cc1F [Compound 71] |  |  |  |  |  |  |  |  |  |  |  |  |  |  |  |  |  |  |  |  | inhibition at 11210 g/ha [1]: 30%; inhibition at 11210 g/ha [2]: 30%; inhibition at 11210 g/ha [3]: 10%; inhibition at 11210 g/ha [4]: 70%; inhibition at 11210 g/ha [5]: 0%; inhibition at 11210 g/ha [6]: 90%; inhibition at 11210 g/ha [7]: 0%; inhibition at 11210 g/ha [8]: 40%; inhibition at 11210 g/ha [9]: 0%; inhibition at 11210 g/ha [10]: 60%; inhibition at 11210 g/ha [11]: 20%; inhibition at 11210 g/ha [12]: 20%; inhibition at 11210 g/ha [13]: 0%; inhibition at 11210 g/ha [14]: 40%; inhibition at 11210 g/ha [15]: 30%; inhibition at 11210 g/ha [16]: 0%; inhibition at 11210 g/ha [17]: 0%; inhibition at 11210 g/ha [18]: 0%; inhibition at 11210 g/ha [19]: 0%; inhibition at 11210 g/ha [20]: 20%
Cn1nc(-c2cc(CCl)c(Cl)cc2F)c(Cl)c1C(F)(F)F [Compound 109] | 90% | 70% | 20% | 100% | 30% | 20% | 90% | 80% | 0% | 90% | 40% | 60% | 0% | 90% | 40% | 40% | 30% | 20% | 10% | 100% | 
Cn1nc(-c2cc(Oc3ccc(C(F)(F)F)cc3)c(Cl)cc2F)c(Cl)c1C(F)(F)F [Compound 205] |  |  |  |  |  |  |  |  |  |  |  |  |  |  |  |  |  |  |  |  | inhibition at 11210 g/ha [1]: 30%; inhibition at 11210 g/ha [2]: 0%; inhibition at 11210 g/ha [3]: 0%; inhibition at 11210 g/ha [4]: 10%; inhibition at 11210 g/ha [5]: 0%; inhibition at 11210 g/ha [6]: 0%; inhibition at 11210 g/ha [7]: 0%; inhibition at 11210 g/ha [8]: 20%; inhibition at 11210 g/ha [9]: 0%; inhibition at 11210 g/ha [10]: 10%; inhibition at 11210 g/ha [11]: 60%; inhibition at 11210 g/ha [12]: 80%; inhibition at 11210 g/ha [13]: 50%; inhibition at 11210 g/ha [14]: 90%; inhibition at 11210 g/ha [15]: 60%; inhibition at 11210 g/ha [16]: 40%; inhibition at 11210 g/ha [17]: 10%; inhibition at 11210 g/ha [18]: 70%; inhibition at 11210 g/ha [19]: 0%; inhibition at 11210 g/ha [20]: 100%
COCCOCc1cc(-c2nn(C)c(C(F)(F)F)c2Cl)c(F)cc1Cl [Compound 117] | 100% | 90% | 90% | 100% | 70% | 100% | 100% | 70% | 0% | 100% | 90% | 100% | 100% | 100% | 90% | 90% | 100% | 100% | 20% | 100% | 
C#CCOc1cc(-c2c(Cl)c(C(F)(F)F)nn2C)c(F)cc1Cl [Compound 76] | 60% | 40% | 10% | 100% | 20% | 10% | 0% | 0% | 0% | 50% | 70% | 50% | 30% | 100% | 40% | 40% | 50% | 40% | 10% | 90% | 
Cn1nc(-c2cc(C3SCCS3)c(Cl)cc2F)c(Cl)c1C(F)(F)F [Compound 101] | 100% | 80% | 80% | 90% | 30% | 70% | 40% | 80% | 0% | 100% | 100% | 100% | 100% | 100% | 100% | 90% | 100% | 70% | 30% | 100% | 
Cn1nc(-c2cc(CC(N)=O)c(Cl)cc2F)c(Cl)c1C(F)(F)F [Compound 112] |  |  |  |  |  |  |  |  |  |  |  |  |  |  |  |  |  |  |  |  | inhibition at 11210 g/ha [1]: 100%; inhibition at 11210 g/ha [2]: 100%; inhibition at 11210 g/ha [3]: 20%; inhibition at 11210 g/ha [4]: 90%; inhibition at 11210 g/ha [5]: 40%; inhibition at 11210 g/ha [6]: 100%; inhibition at 11210 g/ha [7]: 100%; inhibition at 11210 g/ha [8]: 90%; inhibition at 11210 g/ha [9]: 80%; inhibition at 11210 g/ha [10]: 100%; inhibition at 11210 g/ha [11]: 40%; inhibition at 11210 g/ha [12]: 80%; inhibition at 11210 g/ha [13]: 0%; inhibition at 11210 g/ha [14]: 70%; inhibition at 11210 g/ha [15]: 60%; inhibition at 11210 g/ha [16]: 30%; inhibition at 11210 g/ha [17]: 60%; inhibition at 11210 g/ha [18]: 30%; inhibition at 11210 g/ha [19]: 40%; inhibition at 11210 g/ha [20]: 100%
CCC(C)OC(=O)c1cc(-c2nn(C)c(C(F)(F)F)c2Cl)c(F)cc1Cl (centres unmarked) [Compound 136] | 90% | 80% | 100% | 100% | 80% | 90% | 70% | 90% | 0% | 90% | 100% | 100% | 100% | 100% | 100% | 100% | 100% | 100% | 10% | 100% | 
Cn1nc(-c2cc(CC#N)c(Cl)cc2F)c(Cl)c1C(F)(F)F [Compound 115] | 100% | 80% | 70% | 90% | 20% | 40% | 80% | 70% | 0% | 100% | 60% | 60% | 20% | 100% | 60% | 40% | 80% | 40% | 20% | 100% | 
Cn1nc(-c2cc(OCC(=O)O)c(Cl)cc2F)c(Cl)c1C(F)(F)F [Compound 291, (2-Chloro-5-(4-chloro-1-methyl-5-(trifluoromethyl)-1H-pyrazol-3-yl)-4-fluorophenoxy)-acetic acid] | 40% | 100% | 20% | 100% | 100% | 30% | 20% | 40% | 30% | 100% | 40% | 100% | 20% | 90% | 100% | 0% | 20% | 30% | 30% | 100% | 
